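These data come from cells grown in 96-well plates and exposed to compound for 48 hours at five concentrations. Here, GI50 denotes the concentration required for 50% inhibition of growth.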 Activity calls are given as the source filed them. Rule as the data show it: active = GI50 up to about 1.1 µM and inactive = higher. Where only a bound is given, the exact number is not on record here.

Holding throughout (assay): NCI anticancer screen, dose series, 48 h
For experiment [1], the system named is A549.
In experiment [2] the test system is MDA-MB-231.
Experiment [3] has as its system NCI-H226.
The subject of experiment [4] is COLO 205.
Experiment [5] deals with CAKI-1.
The test system of experiment [6] is 786-0.
In experiment [7] the test system is MOLT-4.
In experiment [8] the test system is LOX IMVI.
The test system of experiment [9] is Malme-3M.
Experiment [10] relates to OVCAR-5.
For experiment [11], the system named is HT-29.
Experiment [12] concerns DU-145.
Experiment [13] concerns U-251.
The subject of experiment [14] is SR.
For experiment [15], the system named is CCRF-CEM.
The test system of experiment [16] is MDA-MB-435.
The test system of experiment [17] is NCI-H460.
Experiment [18] deals with SK-MEL-28.
The subject of experiment [19] is NCI-H23.
Experiment [20] deals with EKVX.

With `O=C(Cn1c2ccc(Br)cc2c2nc3ccccc3nc21)NCc1ccccc1`, the GI50 in experiment [1] was > 100 µM (inactive); in experiment [2], 35.4 µM (inactive); in experiment [3] it was 78.7 µM (inactive); in experiment [4], > 100 µM (inactive); in experiment [5], 26.8 µM (inactive); in [6] it was 13 µM (inactive). Moreover, the GI50 in experiment [7] was > 100 µM (inactive); in experiment [8], 42.9 µM (inactive); in experiment [9] it was 41.7 µM (inactive); in experiment [10], > 100 µM (inactive); in experiment [11], > 100 µM (inactive); in experiment [12], > 100 µM (inactive). Further, the GI50 was 15 µM (inactive) in experiment [13]; 39.4 µM (inactive) in experiment [14]; > 100 µM (inactive) in [15]; > 100 µM (inactive) in experiment [16]; > 100 µM (inactive) in experiment [17]; > 100 µM (inactive) in experiment [18]. Moreover, the GI50 in [19] is 37.7 µM (inactive).

With `O=C(O)c1cc(/C=C/c2cc(O)ccc2O)ccc1O`, the GI50 in experiment [1], in experiment [2], in experiment [20], in experiment [3], in experiment [6] and in experiment [7] was > 10 µM (inactive) throughout. For the same compound, the GI50 in [8], in experiment [9], in experiment [10], in experiment [11], in experiment [12] and in experiment [13] was > 10 µM (inactive) in each case. Besides, the GI50 in [14], in [15], in experiment [16], in experiment [17] and in experiment [19] was > 10 µM (inactive) each time.

On to `O=C1CC(C(CC(=O)c2ccccc2)c2ccccc2)C(=O)c2ccccc2N1` (stereo unspecified), for which the GI50 is 38.2 µM (inactive) in [1]; 49 µM (inactive) in [2]; 40.5 µM (inactive) in experiment [20]; 24.4 µM (inactive) in experiment [3]; 54.8 µM (inactive) in experiment [4]; > 100 µM (inactive) in experiment [6]. In addition, the GI50 in experiment [7] is 17.8 µM (inactive); in [8], 35.4 µM (inactive); in [9], 28.4 µM (inactive); in experiment [10] it was 56 µM (inactive); in experiment [11], 32.3 µM (inactive); in experiment [12] it was 48.6 µM (inactive). The GI50 in experiment [13] was 84.7 µM (inactive); in experiment [14] it was 16 µM (inactive); in [15], 25.9 µM (inactive); in [16] it was 50.1 µM (inactive); in experiment [17], 33.3 µM (inactive); in experiment [19], > 100 µM (inactive).

With `Oc1ccc(Nc2nc(Cl)c3nc[nH]c3n2)cc1`, the GI50 in experiment [1] is > 100 µM (inactive); in [2], > 100 µM (inactive); in [20], > 100 µM (inactive); in experiment [3], > 100 µM (inactive); in [4] it was > 100 µM (inactive); in experiment [5], 61.9 µM (inactive). Further, the GI50 in experiment [6] is > 100 µM (inactive); in [7], > 100 µM (inactive); in experiment [8] it was 63.5 µM (inactive); in experiment [9], > 100 µM (inactive); in [10], > 100 µM (inactive); in experiment [11], > 100 µM (inactive). In addition, the GI50 in experiment [12] is > 100 µM (inactive); in [13], > 100 µM (inactive); in [14] it was 28.1 µM (inactive); in experiment [15], 37.9 µM (inactive); in experiment [16], > 100 µM (inactive); in experiment [17], > 100 µM (inactive). In addition, the GI50 in experiment [19] is > 100 µM (inactive).

Regarding `CC(=O)c1sc2c(c1OC(=O)c1ccco1)c(=O)n(-c1ccccc1)c(=S)n2-c1ccccc1`, the GI50 is 38.2 µM (inactive) in experiment [1]; 21.5 µM (inactive) in experiment [2]; 26.4 µM (inactive) in [20]; 3.58 µM (inactive) in [3]; 17.4 µM (inactive) in [4]; 32.5 µM (inactive) in experiment [5]. Also, the GI50 in experiment [6] is 26.7 µM (inactive); in experiment [7] it was 19.5 µM (inactive); in [8], 14 µM (inactive); in [9] it was 5.08 µM (inactive); in experiment [11], 6 µM (inactive); in experiment [12], 26.8 µM (inactive). The GI50 in [13] was 23.3 µM (inactive); in [14] it was 29.4 µM (inactive); in experiment [15], 3.93 µM (inactive); in [16], 15 µM (inactive); in [17] it was 31 µM (inactive); in experiment [18] it was 23.8 µM (inactive). For the same compound, in [19], the GI50 was 26.9 µM (inactive).

For `O=C(CCCCCC(=O)N1CC(CCl)c2ccc([N+](=O)[O-])cc21)N1CC(CCl)c2ccc([N+](=O)[O-])cc21` (stereo unspecified), the GI50 in experiment [2], in experiment [20], in experiment [3], in experiment [4], in [5] and in experiment [6] was > 100 µM (inactive) in each case. For the same compound, the GI50 was > 100 µM (inactive) in experiment [7]; > 100 µM (inactive) in experiment [8]; > 100 µM (inactive) in experiment [10]; > 100 µM (inactive) in experiment [12]; > 100 µM (inactive) in experiment [13]; 9.31 µM (inactive) in experiment [14]. The GI50 is 91.4 µM (inactive) in experiment [15], > 100 µM (inactive) in [16], 34 µM (inactive) in experiment [17] and > 100 µM (inactive) in experiment [19].

As for `NCc1ccc(O)c(O)c1`, the GI50 in [1], in [2], in experiment [20], in experiment [3], in experiment [4] and in experiment [5] was > 100 µM (inactive) throughout. The GI50 in experiment [6] was > 100 µM (inactive); in [7], 27.1 µM (inactive); in [8] it was > 100 µM (inactive); in experiment [10] it was > 100 µM (inactive); in experiment [11], > 100 µM (inactive); in experiment [12], > 100 µM (inactive). For the same compound, the GI50 is > 100 µM (inactive) in experiment [13]; 38.5 µM (inactive) in experiment [14]; 53 µM (inactive) in experiment [15]; > 100 µM (inactive) in [16]; > 100 µM (inactive) in [17]; > 100 µM (inactive) in [18]. For the same compound, in experiment [19], the GI50 was > 100 µM (inactive).

As for `CC(=O)O[C@@H]1[C@@H](C)[C@]2(CC(c3ccoc3)OC2O)C2CCC3O[C@]3(C)[C@]2(C)[C@@H]1OC(C)=O` (stereo partly specified), the GI50 in [1] is 47.3 µM (inactive); in experiment [2], > 100 µM (inactive); in experiment [20], 56.4 µM (inactive); in experiment [3] it was 27.7 µM (inactive); in [4], 20.3 µM (inactive); in [5], > 100 µM (inactive). The GI50 was 19.2 µM (inactive) in experiment [6]; 19.1 µM (inactive) in experiment [7]; 22.3 µM (inactive) in [8]; > 100 µM (inactive) in experiment [10]; 32 µM (inactive) in experiment [11]; 48.1 µM (inactive) in experiment [12]. In addition, the GI50 was 83 µM (inactive) in [13]; 23.4 µM (inactive) in experiment [14]; 18.2 µM (inactive) in [15]; 43.6 µM (inactive) in experiment [16]; 29.7 µM (inactive) in experiment [17]; 25.9 µM (inactive) in experiment [18]. The GI50 in experiment [19] was 37.4 µM (inactive).

On to `Cn1c2n/c(=N\c3ccc(Cl)cc3)[n+]3ccc4ccccc4c3c-2c([O-])n1-c1ccccc1`, for which the GI50 is > 100 µM (inactive) in [2]; > 100 µM (inactive) in [20]; > 100 µM (inactive) in experiment [3]; > 100 µM (inactive) in experiment [4]; 46.3 µM (inactive) in [5]; > 100 µM (inactive) in experiment [6]. Moreover, the GI50 in experiment [7], in experiment [8], in experiment [9], in [10], in experiment [11] and in experiment [12] was > 100 µM (inactive) throughout. Further, the GI50 in experiment [13], in experiment [14], in [16], in experiment [17], in [18] and in experiment [19] was > 100 µM (inactive) throughout.

On to `O=c1[nH]/c(=C/c2ccc(OCc3ccccc3)cn2)c(=O)[nH]/c1=C/c1ccc(F)cc1`, for which the GI50 in [1] is 1.8 µM (inactive); in experiment [2], 8.13 µM (inactive); in experiment [20], 3.49 µM (inactive); in [3] it was 2.22 µM (inactive); in experiment [4], 0.55 µM (active); in experiment [6], 0.447 µM (active). The GI50 in [7] was 0.4 µM (active); in experiment [8], 1.62 µM (inactive); in [9], 0.759 µM (active); in experiment [10], > 33.3 µM (inactive); in experiment [11] it was 0.434 µM (active); in experiment [12], 0.931 µM (active). For the same compound, the GI50 in [13] is 1.05 µM (active); in experiment [14] it was 0.0815 µM (active); in experiment [15], 0.458 µM (active); in experiment [16], 0.0902 µM (active); in experiment [17] it was 0.541 µM (active); in experiment [19], 2.89 µM (inactive).

For `NC(=O)N/N=C\CC(O)(C(F)(F)Cl)C(F)(F)Cl`, the GI50 in experiment [1], in experiment [2], in [20], in experiment [3], in experiment [4] and in [5] was > 10 µM (inactive) in each case. For the same compound, the GI50 in experiment [6], in [7], in experiment [8], in experiment [9], in experiment [11] and in [12] was > 10 µM (inactive) each time. Besides, the GI50 in [13], in experiment [14], in experiment [15], in experiment [16], in experiment [17] and in experiment [18] was > 10 µM (inactive) in each case. Moreover, in experiment [19], the GI50 was > 10 µM (inactive).
